From patent US6545049B1, “Dimer-selective RXR modulators and methods for their use” (Ligand Pharmaceuticals Incorporated, priority 1995, dated 2003)

Experiments:
RXRγ = target: T1, RXRγ (Mus musculus, UniProt P28705); assay: RXR binding, RXRγ; conditions: -v- tritiated LGD1069 and tritiated 9-cis retinoic acid
T1 sequence (P28705 1-463): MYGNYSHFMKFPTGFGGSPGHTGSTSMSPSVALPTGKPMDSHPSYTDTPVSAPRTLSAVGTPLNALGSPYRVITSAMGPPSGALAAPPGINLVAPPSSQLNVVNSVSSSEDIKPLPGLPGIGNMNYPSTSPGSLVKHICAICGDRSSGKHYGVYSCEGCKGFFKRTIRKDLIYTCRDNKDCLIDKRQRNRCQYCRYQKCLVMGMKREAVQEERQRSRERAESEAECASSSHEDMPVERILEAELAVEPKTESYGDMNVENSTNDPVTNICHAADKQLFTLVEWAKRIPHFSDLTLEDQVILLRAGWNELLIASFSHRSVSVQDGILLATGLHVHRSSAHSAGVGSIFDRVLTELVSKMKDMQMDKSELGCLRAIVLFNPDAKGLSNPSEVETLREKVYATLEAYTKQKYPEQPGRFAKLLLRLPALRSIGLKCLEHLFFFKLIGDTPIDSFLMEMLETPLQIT
Protocol: (§1) Non-specific binding was defined as that binding remaining in the presence of 500 nM of the appropriate unlabelled compound. At the end of the incubation period, bound from free ligand were separated. The amount of bound tritiated retinoids was determined by liquid scintillation counting of an aliquot (700 μL) of the supernatant fluid or the hydroxylapatite pellet.
(§2) After correcting for non-specific binding, IC50 values were determined. […] The IC50 value was determined graphically from a log-logit plot of the data. The Kd values were determined by application of the Cheng-Prussof equation to the IC50 values, the labeled ligand concentration and the Kd of the labeled ligand.

RXRβ = target: T2, RXRβ (Mus musculus, UniProt P28704); assay: RXR binding, RXRβ; conditions: -v- tritiated LGD1069 and tritiated 9-cis retinoic acid
T2 sequence (P28704 1-520): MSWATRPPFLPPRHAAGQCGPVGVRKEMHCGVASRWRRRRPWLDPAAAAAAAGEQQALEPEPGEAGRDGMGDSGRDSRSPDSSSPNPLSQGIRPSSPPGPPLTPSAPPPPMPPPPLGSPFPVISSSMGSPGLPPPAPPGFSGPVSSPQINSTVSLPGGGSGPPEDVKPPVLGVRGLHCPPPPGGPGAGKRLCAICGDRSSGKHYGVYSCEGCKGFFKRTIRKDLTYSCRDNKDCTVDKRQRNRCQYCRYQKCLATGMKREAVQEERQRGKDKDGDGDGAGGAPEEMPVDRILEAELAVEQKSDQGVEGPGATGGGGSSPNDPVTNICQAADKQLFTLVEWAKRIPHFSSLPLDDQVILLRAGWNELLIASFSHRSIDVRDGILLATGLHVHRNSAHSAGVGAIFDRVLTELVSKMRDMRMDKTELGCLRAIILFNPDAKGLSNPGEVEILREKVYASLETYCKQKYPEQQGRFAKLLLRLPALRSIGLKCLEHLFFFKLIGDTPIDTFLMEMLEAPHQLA
Protocol: as §1, §2

RXRα = target: T3, RXRα (Homo sapiens, UniProt P19793); assay: RXR binding, RXRα; conditions: -v- tritiated LGD1069 and tritiated 9-cis retinoic acid
T3 sequence (P19793 1-462): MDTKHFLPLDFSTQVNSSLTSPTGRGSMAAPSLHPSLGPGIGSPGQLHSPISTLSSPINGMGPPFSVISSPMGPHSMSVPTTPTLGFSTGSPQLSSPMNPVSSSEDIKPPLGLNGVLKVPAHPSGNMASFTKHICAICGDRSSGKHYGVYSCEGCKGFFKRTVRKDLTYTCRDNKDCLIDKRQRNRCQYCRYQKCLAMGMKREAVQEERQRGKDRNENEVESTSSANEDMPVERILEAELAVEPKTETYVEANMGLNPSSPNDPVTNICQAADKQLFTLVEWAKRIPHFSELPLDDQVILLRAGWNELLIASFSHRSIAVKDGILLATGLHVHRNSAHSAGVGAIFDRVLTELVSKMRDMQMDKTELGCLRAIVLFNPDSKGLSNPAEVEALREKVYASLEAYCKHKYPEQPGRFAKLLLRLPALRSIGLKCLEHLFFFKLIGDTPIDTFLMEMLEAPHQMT
Protocol: as §1, §2

Compound | Kd (RXRγ) [nM] | Kd (RXRβ) [nM] | Kd (RXRα) [nM] | melting point
CCCCCCCOc1c(C(C)C)cc(C(C)C)cc1C(C)C/C=C/C(C)=C/C(=O)O (stereo not shown) [Compound 148, (2E, 4E)-7-(3,5-diisopropyl-2-n-heptyloxyphenyl)-3-methylocta-2,4-dienoic acid] | 84 | 87 | 53 | 
CCCCCCCOc1cc2c(cc1\C(C)=C/C=C/C(C)=C/C(=O)O)C(C)(C)CCC2(C)C [Compound 173, (2E, 4E, 6Z)-7-[3-heptyloxy-5,6,7,8-tetrahydro-5,5,8,8-tetramethyl-2-naphthalen-2-yl]-3-methyl-octa-2,4,6-trienoic acid] | 21 | 12 | 4 | 
CCCOc1cc2c(cc1C(C)C/C=C/C(C)=C/C(=O)O)C(C)(C)CCC2(C)C (stereo not shown) [Compound 175, (2E, 4E)-7-[3-propoxy-5,6,7,8-tetrahydro-5,5,8,8-tetramethyl-2-naphthalen-2-yl]-3-methyl-octa-2,4-dienoic acid] | 31 | 21 | 11 | 
CCCCCCONC(=O)c1ccc(C(=O)c2cc3c(cc2C)C(C)(C)CCC3(C)C)cc1 [Compound 106, 4-[(3,5,5,8,8-pentamethyl-5,6,7,8-tetrahydro-2-naphthyl)carbonyl]benzoic acid O-hexyloxime] |  |  |  | 91 to 95 °C
CCCCCCCOc1c(C(C)C)cc(C(C)C)cc1C(C)C/C=C/C(C)=C\C(=O)O (stereo not shown) [Compound 149, (2Z, 4E)-7-(3,5-diisopropyl-2-n-heptyloxyphenyl)-3-methylocta-2,4-dienoic acid] | 42 | 37 | 16 | 
CCCCCCOc1cc2c(cc1/C(C)=C/C=C/C(C)=C/C(=O)O)C(C)(C)CCC2(C)C [Compound 125, (2E, 4E, 6E)-7-[3-hexyloxy-5,6,7,8-tetrahydro-5,5,8,8-tetramethyl-2-naphthalen-2-yl]-3-methylocta-2,4,6-trienoic acid] | 186 | 145 | 56 | 
CCCCCOc1cc2c(cc1/C(C)=C/C=C/C(C)=C/C(=O)O)C(C)(C)CCC2(C)C [Compound 170, (2E, 4E, 6E)-7-[3-pentyloxy-5,6,7,8-tetrahydro-5,5,8,8-tetramethyl-2-naphthalen-2-yl]-3-methyl-octa-2,4,6-trienoic acid] | 78 | 41 | 11 | 
CC(C=CC=C(C)c1cc2c(cc1OCC(C)C)C(C)(C)CCC2(C)C)=CC(=O)O [Compound 169, (2E, 4E, 6Z)-7-[3-isobutyloxy-5,6,7,8-tetrahydro-5,5,8,8-tetramethyl-2-naphthalen-2-yl]-3-methyl-octa-2,4,6-trienoic acid] | 31 | 14 | 5 | 
CCCCCCCOc1c(/C(C)=C/C=C/C(C)=C/C(=O)O)cc(C(C)C)cc1C(C)C [Compound 146, (2E, 4E, 6E)-7-(3,5-diisopropyl-2-n-heptyloxyphenyl)-3-methylocta-2,4,6-trienoic acid] | 116 | 100 | 46 | 
CCCOc1cc2c(cc1C1=C(/C=C/C(C)=C/C(=O)O)CCC1)C(C)(C)CCC2(C)C [Compound 158, (2E, 4E)-5-[2-(5,5,8,8-tetramethyl-3-propyloxy-5,6,7,8-tetrahydronaphthalen-2yl)cyclopent-1-en-1-yl]-3-methyl pentadienoic cid] | 106 | 53 | 21 | 

Now from value to molecule:

Kd (RXRγ) [nM] | Kd (RXRβ) [nM] | Kd (RXRα) [nM] | melting point | Compound
6 | 6 | 2 |  | CON=C(c1ccc(C(=O)O)cc1)c1cc2c(cc1OCc1ccccc1)C(C)(C)CCC2(C)C [Compound 163, trans-4-[(3-benzyloxy-5,6,7,8-tetrahydro-5,5,8,8-tetramethyl-2-naphthyl)carbonyl]benzoic acid O-methyloxime]
 |  |  | 221 to 223.5 °C | CC1(C)CCC(C)(C)c2cc(C(=O)c3ccc(C(=O)NO)cc3)c(OCc3ccc(Br)cc3)cc21 [Compound 161, 4-[(3-(4-bromobenzyloxy)-5,6,7,8-tetrahydro-5,5,8,8-tetramethyl-2-naphthyl)carbonyl]benzoic acid oxime]
 |  |  | 200 to 205 °C | CCCCCCCOc1cc2c(cc1C(=O)c1ccc(C(=O)NO)cc1)C(C)(C)CCC2(C)C [Compound 115, 4-[(3-heptyloxy-5,6,7,8-tetrahydro-5,5,8,8-tetramethyl-2-naphthyl)carbonyl]benzoic acid oxime]
 |  |  | 222 to 228 °C (dec.) | CC1(C)CCC(C)(C)c2cc(C3(c4ccc(C(=O)O)cc4)OCCO3)c(OCc3ccccc3)cc21 [Compound 164, 4-[2-(3-benzyloxy-5,6,7,8-tetrahydro-5,5,8,8-tetramethyl-2-naphthyl)-[1,3]dioxolan-2-yl]benzoic acid]
 |  |  | 169 to 172 °C | Cc1cc2c(cc1C(=O)c1ccc(C(=O)NOCc3ccccc3)cc1)C(C)(C)CCC2(C)C [Compound 105, 4-[(3,5,5,8,8-pentamethyl-5,6,7,8-tetrahydro-2-naphthyl)carbonyl]benzoic acid O-benzyloxime]
50 | 90 | 27 |  | C=C(c1ccc(C(=O)O)cc1)c1cccc2cc3c(cc12)C(C)(C)CCC3(C)C [Compound 142, 4-[1-(5,6,7,8-tetrahydro-5,5,8,8-tetramethyl-anthracen-1-yl)vinyl)benzoic acid]
 |  |  | 194 to 196 °C | CCCCOc1cc2c(cc1C=Cc1ccc(C(=O)O)cc1)C(C)(C)CCC2(C)C [Compound 112, 4-[(3-butyloxy-5,6,7,8-tetrahydro-5,5,8,8-tetramethyl-2-naphthyl)ethenyl]benzoic acid]
 |  |  | 195 to 200 °C (dec.) | CCOc1cc2c(cc1C=Cc1ccc(C(=O)O)cc1)C(C)(C)CCC2(C)C [Compound 107, 4-[(3-ethoxy-5,6,7,8-tetrahydro-5,5,8,8-tetramethyl-2-naphthyl)ethenyl]benzoic acid]
46 | 43 | 5 |  | COc1ccc(COc2cc3c(cc2/C(C)=C/C=C/C(C)=C/C(=O)O)C(C)(C)CCC3(C)C)cc1 [Compound 174, (2E, 4E, 6E)-7-[3-(4-methoybenzyloxy)-5,6,7,8-tetrahydro-5,5,8,8-tetramethyl-2-naphthalen-2-yl]-3-methyl-octa-2,4,6-trienoic acid]
 |  |  | 207 to 210 °C | CCCCOc1cc2c(cc1C(=O)c1ccc(C(=O)O)cc1)C(C)(C)CCC2(C)C [Compound 111, 4-[(3-butyloxy-5,6,7,8-tetrahydro-5,5,8,8-tetramethyl-2-naphthyl)carbonyl]benzoic acid]
 |  |  | 153 to 155 °C | CCCCCCCOc1cc2c(cc1C=Cc1ccc(C(=O)O)cc1)C(C)(C)CCC2(C)C [Compound 116, 4-[(3-heptyloxy-5,6,7,8-tetrahydro-5,5,8,8-tetramethyl-2-naphthyl)ethenyl]benzoic acid]
70 | 13 | 49 |  | COC(C)(c1ccc(C(=O)O)cc1)c1cccc2cc3c(cc12)C(C)(C)CCC3(C)C (stereo not shown) [Compound 141, 4-[1-methoxy-1-(5,6,7,8-tetrahydro-5,5,8,8-tetramethyl-anthracen-1-yl)ethyl)benzoic acid]
 |  |  | 252 to 254 °C | CCCc1cc2c(cc1C(=O)c1ccc(C(=O)O)cc1)C(C)(C)CCC2(C)C [Compound 101, 4-[(3-n-propyl-5,6,7,8-tetrahydro-5,5,8,8-tetramethyl-2-naphthyl)carbonyl]benzoic acid]
